Reference: a melting point compilation (Tetko et al.; mined from patent text by program, amines drawn as free bases though some values may be those of a salt)

melting point	SMILES
56 to 56.9 °C	COc1cccc(C2OCCC(C)(C)C2(O)C(C)C)c1 (stereo unspecified)
67 to 69 °C	CCN(CC)CCNC(=O)Cn1ncc(-c2ccccc2)c1-c1ccccc1
60 to 69 °C	CC(Cc1c[nH]c2ccccc12)(NCc1cc2ccccc2o1)C(=O)NCc1cccc(O)c1 (stereo unspecified)
177 to 180 °C	CC(=O)COc1ccc(N2N=C3c4ccccc4SCC3CC2=O)cc1 (stereo unspecified)
228 to 230 °C	COCCN1Cc2cc(C(=O)O)ccc2N(C)C(CC(=O)O)C1=O (stereo unspecified)
65 to 70 °C	CCCCN(Cc1ccc(-c2ccccc2-c2nnn[nH]2)cc1)c1ncc(C(=O)OCC)s1
184 °C	Cc1oc(-c2cccc(-c3ccc(C(=O)O)cc3)c2)nc1CCOc1cccc(OC(C)(C)C(=O)O)c1
248 °C	NS(=O)(=O)c1cc(C(=O)O)cc([N+](=O)[O-])c1Oc1ccc(Cl)cc1
195 to 196 °C	CNc1nc(C(C)c2ccc(-c3ccc(F)cc3)c(F)c2)c(C(=O)O)s1 (stereo unspecified)
212 to 213 °C	CC1(C)CCC(C)(C)c2cc(C(=O)c3ccc(C(=O)O)cc3)c(OCc3ccccc3)cc21
88 to 89.5 °C	CNC(=O)[C@@H]1C[C@H](SCc2ccc(OC)cc2)CN1CCO
103 to 105 °C	CCCCCCCC/C=C\c1ccccc1/C=C/C(C)=C/C=C/C(C)=C/C(=O)O
130 °C	O=C(NOCCO)c1ccc(F)c(F)c1Nc1ccccc1F
105 to 107 °C	N=C(Nc1ccc(OCCNCc2ccccc2)cc1F)c1cccs1
138 to 140 °C	COc1ccc2c(c1)CCN1C(=O)[C@H]3CCCN(S(C)(=O)=O)[C@H]3C[C@@H]21
200 °C	CC(=O)NCCCC(=O)OC1c2ccccc2C(=O)N1c1ccc2ccc(Cl)nc2n1 (single isomer, unassigned; (+))
166 to 167 °C	COc1ccc(CC(=O)Nc2c(C)c(C)c3c(c2C)C(c2ccc(C(C)C)cc2)CO3)cc1 (stereo unspecified)
179 to 180 °C	COc1cc2c(Oc3ccc(Cl)cc3F)ncnc2cc1OCc1ccccc1

melting point	SMILES
110 to 112 °C	CCOC(=O)c1cc2ccc(SCc3ccc(OC)cc3)cc2nc1Cl
117 to 119 °C	CN(C)C=CC(=O)c1cccc(N(C)C(=O)C2CCC2)c1
182 to 183 °C	CCOC(=O)C(=O)c1c[nH]c2ccc(Br)cc12
98 to 100 °C	CCOC(=O)Cn1ncc(-c2ccccn2)c1-c1ccccc1
66 °C	COc1ccc(/C=C/CCCCO)cc1
248 to 250 °C	COc1ccc(Cc2ccc3[nH]c(=S)[nH]c3c2)c(O)c1
155 to 156 °C	C#CCNC(=O)C(C)(COc1ccc(OCC)cc1)NS(=O)(=O)Cc1ccccc1 (stereo unspecified)
72 to 74 °C	COC(=O)CCn1ncc(-c2ccccc2)c1-c1ccccc1
46 to 48 °C	C=CCc1cc(C(C)=O)c(O)cc1OCCCCCCCC#N
128 °C	CCCC1=C(C(=O)OCC)C(c2ccccc2OCc2ccccc2)c2c[nH]nc2N1 (stereo unspecified)
137 to 138 °C	CC(=O)NC1=CCc2ccccc21
120 °C	COC(=O)CCCc1cc2cc(Cl)ccc2n1S(=O)(=O)c1ccc2nc(NC(C)=O)sc2c1
156 to 157 °C	CCOc1cc(C(CC#N)N2C(=O)c3cccc([N+](=O)[O-])c3C2=O)ccc1OC (stereo unspecified)
218 to 220 °C	COC(=O)c1ccc(Cl)c(NN)c1
143 to 145 °C	Cc1ccc(C(O)c2nc3c(cc2C)CCCCC3)cc1 (stereo unspecified)
> 300 °C	O=C(O)/C=C/c1ccc(-c2nc3c(=O)n(Cc4ccccc4)c(=O)n(Cc4ccccc4)c3[nH]2)cc1
131 to 133 °C	COc1cccc(C(CCN2CCN(Cc3cccc(F)c3)CC2)C2(O)CCCCC2)c1 (stereo unspecified)

The next lines start with the molecule.

SMILES	melting point
NS(=O)(=O)c1ccc(-n2nc(CCCNC(=O)Nc3ccc(Cl)cc3)cc2-c2ccccc2)cc1	103 to 110 °C
COC(=O)NC1(C)CN(C(=O)Nc2ccc(C(F)(F)F)cc2)N=C1c1ccc(Cl)cc1 (stereo unspecified)	179 to 181 °C
c1ccc2c(c1)ccn2Nc1ncnc2c1ncn2-n1ccc2ccccc21	196 to 198 °C
O=C(O)c1cccc(Cl)c1C(F)(F)F	110 °C
C/C(NCc1ccccc1)=C(\C#N)C(N)=S	157 to 159 °C
O=C(NCCn1cncn1)c1ccco1	131 to 133 °C
N#Cc1ccc(-c2ccc(-c3cccs3)s2)s1	122 to 125 °C
Cc1ccc2c(NCc3ccc(NC(=O)C4CCN(Cc5ccc(C(F)(F)F)cc5)CC4)cc3)nc(N(C)C)nc2c1	126 to 128 °C
CN1CC(C(=O)N(C)CCCc2ccc(Cl)c(Cl)c2)=C(O)C1=O	138 to 140 °C
CC(Cl)c1nc2c(C(F)(F)F)cccc2c(=O)o1 (stereo unspecified)	112 °C
O=CC1=CCC(F)(C2COC(c3c(F)cccc3F)=N2)C=C1 (stereo unspecified)	105 to 106 °C
CCOc1ccc2c(c1)C(C)(c1cc(NC(=O)CN(C)C)ccc1Cl)C(=O)N2S(=O)(=O)c1ccc(C(=O)NC(C)(C)C)cc1OC (stereo unspecified)	150 °C
COP(=O)(COS(=O)(=O)c1c(C)cccc1Cl)OC	55 to 57.5 °C
CCN(CC)c1ccc(C2(c3ccc(N(C)C)cc3)OC(=O)c3c(Cl)c(Cl)c(Cl)c(Cl)c32)c(N(CC)CC)c1 (stereo unspecified)	174 to 176 °C
CC(=O)Nc1ccc(C(=O)SC[C@@H](C)C(=O)N2CSC[C@H]2C(=O)O)cc1	206 to 207 °C
CC(=O)NC1CCN(Cc2ccccc2)C1C (stereo unspecified)	51 to 54 °C
O=C(Oc1cc(F)ccc1F)c1cc2ccccc2oc1=O	134 to 137 °C
Cc1nc(-c2ccc(C(F)(F)F)cc2)oc1CSc1ccc(CC(=O)O)cc1Cl	158 to 160 °C
O=Cc1cc2n(c1)Cc1ccccc1-n1ccnc1-2	203 to 205 °C
Cc1[nH]c(=O)ccc1-c1ccc2nccn2c1	290 to 292 °C
CCc1nnc(-c2ccc(F)c(F)c2Nc2ccc(I)cc2F)o1	97 to 98 °C

SMILES	melting point
O=C(O)C(=O)Nc1cc(Cl)cc(NC(=O)C(=O)O)n1	> 320 °C
N#Cc1cc(C(=O)NNC(=O)c2occc2-c2cccc(Oc3ccccc3)c2)ccc1O	227 to 228 °C
Cn1cnnc1C(O)(c1ccc(Cl)cc1)c1ccc2c(c1)c(-c1cccc(Cl)c1)cc(=O)n2Cc1ccc(C#N)cc1 (stereo unspecified)	185 °C
O=S(=O)(c1ccc(Cl)cc1)N1CCCC1c1ccc(F)c(Cl)c1 (racemic)	119 °C
O=C1Nc2cccc(F)c2C12COc1cc3c(cc12)OCCO3 (stereo unspecified)	282 to 285 °C
CCOC(=O)c1cn(C2CC2)c2c(F)c(NCC(O)COC(=O)c3ccccc3)c(F)cc2c1=O (stereo unspecified)	134 to 136 °C
CCOCc1nc2c(N)nc3cc(-c4ccc(-c5ccc6c(c5)nc(N)c5nc(COCC)n(CC(C)(C)O)c56)cc4)ccc3c2n1CC(C)(C)O	325 to 328 °C
Cc1ccc2c(c1)C1(OCCO1)C1(CCC(=O)CC1)C2	116 to 118 °C
N#Cc1ccc(N(Cc2ccc3c(c2)NS(=O)(=O)O3)n2ccnc2)cc1	230 °C
CNc1nc(Cc2ccc(OC)c(OC)c2)nc2sc(C#N)c(C)c12	161 to 163 °C
O=c1cc(C(F)(F)F)nc(ON=C2CCCC2)n1-c1cc(Oc2ccccc2[N+](=O)[O-])c(Cl)cc1F	76 to 78 °C
CN1CCN(CC(=O)Nc2cccc3c2C(=O)c2c-3n[nH]c2-c2ccc(N(C)C)cc2)CC1	> 300 °C
CCCCC1(C2CCCC2)Cc2cc(OCC(=O)O)c(Cl)c(Cl)c2C1=O (stereo unspecified)	173 to 174 °C
CN(C)Cc1c(-c2cc(C(C)(C)C)c(O)c(C(C)(C)C)c2)nc2n1CCS2	188 to 191 °C
CC(C)c1nc2cc(NC(=O)c3c(C(=O)N4CC(F)C4)cnn3C)ccn2n1	226 to 227 °C
CCC1N=C(c2ccccc2Cl)c2cc(CCC(=O)OC)sc2NC1=O (stereo unspecified)	187 to 189 °C
CC(Oc1cc(C(F)(F)F)cc(C(F)(F)F)c1)C(N)=O (stereo unspecified)	84 to 85 °C
O=c1c2ccc(Cl)cc2oc2c(OCc3ccccc3)cccc12	154 °C
O=c1[nH]c2cc(Cl)cc(Cl)c2c(=O)n1Cc1ccccc1Cl	193 to 198 °C
Cc1ccc(S(=O)(=O)n2ccc3c2CC(c2ccccc2)CC3=O)cc1 (stereo unspecified)	118 to 120 °C
CCC(C)(C)c1cc(-c2ccc(C=C3SC(N4CCOCC4)=NC3=O)s2)ccc1O	322 to 323 °C

SMILES	melting point
CC1=C(C(=O)OCC2CC2)C(c2ccccc2C(F)(F)F)c2c(ccnc2OC(C)C)N1 (stereo unspecified)	112 to 114 °C
Clc1ccccc1N=C1NCCN1	133 to 134 °C
O=C(Cc1ccccc1)c1cc2c(c(Cl)c1Cl)OC(C(=O)O)C2 (stereo unspecified)	146 °C
COc1cc(-c2ccc(O)c(C3(C)CCCCC3)c2)cc(CC2SC(N3CCCC3)=NC2=O)c1OC (stereo unspecified)	227 to 230 °C
O=C(NCC12CC3CC(CC(C3)C1)C2)c1cc(N2CC2)ccc1Cl	154 to 155 °C
C=C1COc2c(F)c(F)cc3c(=O)c(C(=O)OCC)cn1c23	258 to 263 °C
Cc1ccc(C(=S)C2CCC3C4CCc5cc(C(=O)O)ccc5C4CCC23C)cc1 (stereo unspecified)	255 to 257 °C
C=Cc1c(C)c2c(c(O)c1C/C=C1\CCCC1CC(=O)O)C(=O)OC2 (stereo unspecified)	141 to 142 °C
N[C@@H](Cc1ccc(C(F)(F)F)cc1)[C@H](O)c1ccccc1 (racemic)	64 to 65 °C
C1COCCOCCOCCOCCO1	70 to 71 °C
CC(C)n1cc(C(=O)O)c2ccc(F)cc21	177 to 180 °C
O=C1OC(CN2CCC(O)(c3ccc(F)cc3)CC2)CN1c1ccc(F)cc1 (stereo unspecified)	145 to 147 °C
CC(C)(Oc1ccc(CCC(=O)c2ccc(-c3ccc(Br)cc3)s2)c(Cl)c1Cl)C(=O)O	155 to 157 °C
Cc1ccc2c(c1)C(=O)c1cccn1-2	85 °C
N#Cc1ccc(C=O)c(-c2cccs2)c1	114 °C
O=c1c2ccc(Cl)cc2[nH]c2c(=O)n(-c3ccc(Cl)cc3Cl)nc(O)c12	342 to 343 °C
O=c1[nH]c2cc3[nH]c(=O)oc3cc2[nH]1	> 360 °C
O=C(O)C1(c2ccc(Nc3nc(N4CCC(O)CC4)nc4c3CCC4)cc2)CCC1	165 to 167 °C
O=C(NC1CCCCC1)c1c(O)c2cc(Cl)ccc2n(Cc2ccccc2)c1=O	158 °C
